The values below come from patent US11000529B2, “Human papilloma virus replication inhibitors” (Icosagen Cell Factory OÜ, priority 2015, dated 2021).

Entries after “also recorded” stand apart in the source; their conditions may differ.

For experiment [1], the system named is HPV18. The experiment in a line: HPV18 initial amplification replication assay in U2OS cells (Southern Blot). It counts as cell-based. From the text: FIG. 2 Effect of the identified five compounds on HPV18 initial amplification. A: U2OS cells were transfected with HPV18 wt minicircle and grown in the presence of the compounds with indicated concentrations for 5 days. Genomic DNA was extracted, linearized, and digested with DpnI. HPV genome replication signals were detected using Southern Blot analyses and quantified with phosphoimager and expressed relative to vehicle control (DMSO). Approximate IC50 values are shown for each compound. Error-bars represent standard deviation from at least three independent experiment. B: U2OS cells were transfected with the expression vectors of HPV18 E1 and E2 proteins together with HPV18 URR (origin) minicircle plasmid. The cells were grown in the presence of the compounds with indicated concentrations for 24 or 48 hours. Genomic DNA was extracted, linearized and digested with DpnI. HPV URR replication signals were detected by Southern Blot analyses. DMSO serves as vehicle control and M 18URR serves as size marker.
(§1) Replication assay. The U2OS or U2OS-EBNA1 cells were transfected with 2 ug of HPV18 minicircle genome and lug of oriP plasmid (only in case of U2OS-EBNA1 cells). All the compounds were added to the media immediately after the transfection and media was changed on the third day. Replication signals were detected with Southern Blot method. Briefly, genomic DNA was extracted 3 and 4 days after the transfection with sh_RNAs or with the use of ABT-888 and 5 days after for analyses of the effects of HPV inhibitors w/wo CPT. DNA was digested with BglI and DpnI for analyses of HPV18 replication and with BstXI, ScaI and DpnI for analyses of HPV18 and oriP replication simultaneously. 3 ug of DNA was resolved in agarose gel, transferred to a nylon membrane (Membrane Solutions LLC) and hybridized with specific radioactively labeled probes. Signals were detected and quantified with Typhoon Trio+ phosphoimager (GE Healthcare) and exposed on an X-ray film (AGFA).
for compounds inhibiting initial amplification of HPV18 genome in U2OS cells. HT-screening was conducted with all the compounds in this library in 5 uM and 1 uM concentrations and it gave us 80 hits (approximately 5% of analyzed compounds). After validation of the hits on HPV18 wt genome, we found five compounds inhibiting initial amplification of HPV18 in U2OS cells (FIG. 1). To further characterize the compounds, we performed replication assay described in Example 1.

Experiment [2] concerns HPV18. The experiment in a line: Vegetative amplification of HPV18 in U2OS #1.13 cells, confluent. It counts as cell-based. Particulars: U2OS #1.13, confluent, compounds added on 5th day for additional 7 days. As to the method: (§2) FIG. 3 Effect of compounds on stable maintenance and vegetative amplification of HPV18. A: U2OS #1.13 cells were grown in subconfluent conditions in the presence of the identified five compounds for 7 days. Genomic DNA was extracted, linearized and HPV replication signal was detected by Southern Blot and B: quantified by phosphoimager. C: U2OS #1.13 were seeded and grown for 5 days without splitting. On the 5th day indicated concentrations of compounds were added to the media and the cells were grown for additional 7 days without splitting. On the 12th day genomic DNA was extracted, linearized and HPV replication signal was detected by Southern Blot and D: quantified by phosphoimager. Error-bars represent standard deviations from at least two independent experiments.
If #1.13 is grown in confluent conditions for at least 5 days, vegetative amplification of HPV genome is turned on. We seeded equal amounts of cells onto plates and grew them for 5 days without splitting. On the 5th day various concentrations of compound were added and the cells were grown for additional 7 days (media was changed every two days throughout the experiment). HPV replication signal was detected by Southern Blot analyses and quantified with phosphoimager.

For experiment [3], the target named is Tdp (Homo sapiens, UniProt Q9NUW8). The settings on record: known from the literature; cited from earlier work.
For experiment [4], the system named is HPV18E1E2 mutant genome. The experiment in a line: HPV18E1E2 mutant genome replicated by HPV11 E1 and E2 in U2OS cells. It counts as cell-based, HPV18. The settings on record: U2OS co-transfected with HPV18E1E2 mutant and HPV11 wt minicircle, 5 days. The source says: Besides oncoproteins E6 and E7, HPVs differ from replication proteins E1 and E2 as well. To determine if the compounds identified here inhibit the replication of HR but not LR or cutaneous HPVs through E1 or E2, HPV18E1E2 mutant genome (deficient in replication due to mutations in the ORFs of E1 and E2) was replicated by E1 and E2 proteins originating from HPV11. HPV18E1E2 mutant genome alone was used as control. U2OS cells were co-transfected with HPV18E1E2 mutant and HPV11 wt mini circle genome and the cells were grown in the presence of compound 305831 for 5 days, media was changed on the 3rd day. DMSO was added as vehicle control. Genomic DNA was extracted, HPV DNA was digested with AgeI, SdaI and DpnI. HPV replication was detected by Southern Blot analyses. Results on FIG. 7 show, that HPV18E1E2 mutant genome is indeed replication-deficient when transfected alone (lane 7). […] The activity of LR-HPV E1 and E2 proteins or their interactome seem to be different compared to HR-HPV replication proteins.

In experiment [5] the test system is HPV18. The experiment in a line: HPV18 replication in U2OS-EBNA1 cells, compounds alone or with CPT. It counts as cell-based. The settings on record: U2OS-EBNA1, with 2 nM CPT, 5 days. As to the method:
FIG. 5 Synergistic effect between Camptothecin (CPT) and the identified five compounds. U2OS-EBNA1 cells were transfected with HPV18 wt and oriP plasmids and grown in the presence of indicated concentrations of the compounds alone or together with 2 nM CPT for 5 days. Genomic DNA was extracted, linearized and digested with DpnI. Both HPV18 and oriP replication signals were detected with Southern Blot and quantified by phosphoimager. […] Error-bars represent standard deviations from at least three independent experiments.
as §1
Synergistic effect of Campthotecin (CPT) and HPV18 replication inhibitors. CPT is a Topoisomerase I inhibitor that stabilizes entrapped Top1cc complexes to DNA. Since Tdp1 is responsible for cleaving entrapped Top1cc complexes from DNA, synergistic effect between CPT and Tdp1 inhibitors occurs. In the experiments shown in FIG. 5 we used U2OS cells constitutively expressing Epstein Barr virus (EBV) EBNA1 protein—U2OS-EBNA1. These cells allow to monitor HPV and EBNA1 supported oriP plasmid replication simultaneously. […] U2OS-EBNA1 cells were cotransfected with HPV18 genome and oriP plasmid and the cells were grown in the presence of various concentrations of the identified HPV inhibitors alone or together with 2 nM of CPT for 5 days, DMSO was used as vehicle control.

The test system of experiment [6] is HPV18. Briefly: Stable maintenance of HPV18 in U2OS #1.13 cells, subconfluent. It counts as cell-based. The settings on record: U2OS #1.13, subconfluent, 7 days. As to the method: as §2
Our U2OScell-based system is suitable for studying all three replication stages of various HPV subtypes. Stable maintenance phase could be monitored by maintaining HPV-positive cells in subconfluent conditions. We used HPV18 positive monoclonal U2OS cell-line #1.13 with viral copy number ˜2000. We grew the #1.13 cells in the presence of various concentration of compounds in subconfluent conditions (cells were split every three days) for 7 days. HPV18 replication signal was detected by Southern blot analyses and quantified with phosphoimager. About 50% of the signal was lost in case of compound 82269 compared to the DMSO control (FIG. 3, panel A, compare lanes 4-6 with lane 15 and panel B).

Chain of Tdp (Q9NUW8 whole entry): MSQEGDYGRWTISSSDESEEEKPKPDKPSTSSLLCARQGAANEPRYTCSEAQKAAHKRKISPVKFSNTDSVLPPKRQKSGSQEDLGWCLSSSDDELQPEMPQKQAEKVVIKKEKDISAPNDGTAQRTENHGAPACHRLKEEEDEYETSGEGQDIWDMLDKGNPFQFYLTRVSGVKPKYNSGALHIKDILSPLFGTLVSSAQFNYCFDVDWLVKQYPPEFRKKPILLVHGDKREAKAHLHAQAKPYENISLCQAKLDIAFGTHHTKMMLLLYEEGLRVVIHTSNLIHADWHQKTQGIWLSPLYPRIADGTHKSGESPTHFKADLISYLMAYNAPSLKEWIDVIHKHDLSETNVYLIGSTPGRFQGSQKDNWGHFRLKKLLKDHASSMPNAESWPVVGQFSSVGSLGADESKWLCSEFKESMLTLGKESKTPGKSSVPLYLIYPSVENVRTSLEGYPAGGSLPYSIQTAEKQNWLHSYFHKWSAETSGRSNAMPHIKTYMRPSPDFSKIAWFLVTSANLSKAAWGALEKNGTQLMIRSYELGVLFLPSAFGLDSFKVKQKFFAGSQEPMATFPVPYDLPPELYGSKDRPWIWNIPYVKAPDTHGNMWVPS

The term IC50 denotes the concentration needed to halve the response being measured. As to `[H]/N=C(\N)c1ccc(-c2ccc(-c3ccc(C(=N)N)cc3)o2)cc1` [NSC 305831], the half-maximal inhibitory concentration (IC50) in experiment [1] (120 h, read-out: IC50 of HPV18 initial amplification) lay within 2.5 to 60 µM. In experiment [1] (HPV18 wt minicircle, 5 days, Southern Blot, relative to DMSO), the “inhibition of HPV18 initial amplification” value is “concentration-dependent inhibition”. In addition, the “effect on vegetative amplification of HPV18” value in experiment [2] is listed as “almost completely abolished amplification; also recorded: clearly inhibit”. Also, the Tdp inhibition result in experiment [3] is listed as “known to inhibit Tdp”. For the same compound, the “HPV18 replication carried out by E1 and E2 proteins originating from HPV11” value in experiment [4] is reported as “no inhibition of HPV18 replication”. For the same compound, in experiment [5], the “synergistic effect together with CPT on HPV18 replication” value is recorded as “clear concentration dependent synergistic effect; also recorded: clear synergistic inhibition”. Moreover, the “effect on stable maintenance of HPV18” value in experiment [6] is “clearly inhibit”. In addition, the “HPV18 replication signal lost” value in experiment [6] (compared to DMSO control) is “about 70%”.
